In patent US20250101032A1, “EXATECAN DERIVATIVES AND ANTIBODY-DRUG CONJUGATES THEREOF” (priority 2021, published 2025):
Values after ≈ are worked out from the molar mass of the structure shown.

Columns and labels:
physchem = conditions: 25 °C, pH 7.4, aqueous buffer, kinetic from dmso stock
Method: In-vitro kinetic solubilities of the compounds in PBS pH 7.4 buffer at 25° C. were determined by diluting compounds from 100% dimethyl sulfoxide (DMSO) into PBS buffer and measuring absorbance at 490, 590 and 650 nm. Stock concentrations in 100% DMSO were provided at 1-6 mM in 100% DMSO. Kinetic solubilities were determined by diluting test compounds from 100% DMSO into PBS pH 7.4 buffer, as duplicate, 10 point 2-fold serial dilution starting at 100× dilution of stock DMS solution into PBS buffer in a clear, flat bottom polystyrene assay plates. Total assay volume was 200 microliters. Solutions were mixed by plate shaking, incubated for 30 m at 25° C., and absorbance was read at 490, 590 and 650 nm. […] in PBS buffer was used as a blank. For each test compound, average optical density (GD) at each concentration was determined by averaging the blank corrected sum of absorption at 490 nm, 590 nm and 650 nm, over duplicate measurements. Turbidity threshold optical density value was set as a sum of mean plus two standard deviations of the mean of absorbances at 490, 590 and 650 nm for 1% (v/v) DMSO in PBS pH 7.4 buffer. Highest soluble concentration (micromolar) corresponded to the highest concentration at which average optical density was below optical density value set for turbidity threshold (Table 4). Amiodarone and propranolol were used as low and high solubility controls respectively.

SKBR3 = test: In vitro cytotoxicity assay (CellTiter-Glo), SKBR3; assay type: cell-based, Human; conditions: Homo sapiens, SK-BR-3, 144 h, read-out: Cytotoxicity IC50
Method: (§1) Human tumor cell lines, SK-BR-3, NCI-H292, HT-29, MCF-7, NCI-N87, and FaDu were obtained from ATCC. NCI-H292, HT-29, MCF-7, and NCI-N87 cells were cultured in RPMI-1640 media (Gibco, Life Technologies) supplemented with 10% v/v heat inactivated FBS (Corning), FaDu cells were maintained in DMEM media (Gibco, Life Technologies) supplemented with 10% v/v heat inactivated FBS (Corning). SK-BR-3 cells were maintained in McCoys 5A medium (Gibco, Life Technologies) supplemented with 10% […] heat inactivated FBS (Corning) at 37° C. in a humidified incubator containing 5% CO2.
(§2) Lyophilized compounds were dissolved in 100% dry DMSO, aliquots frozen and stored at −80° C. Concentration and purity of compound stock solutions in DMSO were determined by RP-HPLC Agilent 1100 platform with 1200 DAD and SofTA ELSD detectors, and the Agilent 6150 MS system (UV/VIS, ELSD purity and MS compound identity confirmation). Shimadzu 3.0 mm×30 mm XR ODS 2.2 μm column was run at 50° C., 1.5 mL/min. Solvent A: 0.1% Formic acid in water, Solvent B: 0.08% Formic acid in methanol-Gradient: 5%-100% B in 3.0 min, 100% solvent B for 0.3 min. Concentration of compounds in 100% DMSO determined by ELS ranged from 1-6 mM.
(§3) Cells were plated in 96-well white flat-bottomed plates (Corning) at 2.0×10^3 cells per well in 100 μL culture medium. After incubation for 24 hours, test compounds were added at a range of concentrations as ten point serial dilution as duplicates or triplicates. Following further incubation for 6 days 37° C., 5% CO2, cell viability was assessed with the use of a CellTiter-Glo Luminescent Cell Viability Assay (Promega). Luminescence was measured using the GloMax instrument (Promega). […] For a subset of payloads, each treatment was independently repeated two to eight times, and IC50 values were averaged. […] Standard deviation (stdev) is shown as (N/A) for treatment performed once.

HT29 = test: In vitro cytotoxicity assay (CellTiter-Glo), HT29; assay type: cell-based, Human; conditions: Homo sapiens, HT-29, 144 h, read-out: Cytotoxicity IC50
Method: as §1, §2, §3

NCI-H292 = test: In vitro cytotoxicity assay (CellTiter-Glo), NCI-H292; assay type: cell-based, Human; conditions: Homo sapiens, NCI-H292, 144 h, read-out: Cytotoxicity IC50
Method: as §1, §2, §3

MCF7 = test: In vitro cytotoxicity assay (CellTiter-Glo), MCF7; assay type: cell-based, Human; conditions: Homo sapiens, MCF7, 144 h, read-out: Cytotoxicity IC50
Method: as §1, §2, §3

NCI-N87 = test: In vitro cytotoxicity assay (CellTiter-Glo), NCI-N87; assay type: cell-based, Human; conditions: Homo sapiens, NCI-N87, 144 h, read-out: Cytotoxicity IC50
Method: as §1, §2, §3

FaDu = test: In vitro cytotoxicity assay (CellTiter-Glo), FaDu; assay type: cell-based, Human; conditions: Homo sapiens, FaDu, 144 h, read-out: Cytotoxicity IC50
Method: as §1, §2, §3

SKOV3 = test: In vitro cytotoxicity assay (CellTiter-Glo), SKOV3; assay type: cell-based; conditions: Homo sapiens, SK-OV-3, 144 h, read-out: Cytotoxicity IC50
Method: (§4) Lyophilized compounds were dissolved in 100% dry DMSO, aliquots frozen and stored at −80° C. […] Shimadzu 3.0 mm×30 mm XR ODS 2.2 μm column was run at 50° C., 1.5 mL/min. Solvent A: 0.1% Formic acid in water, Solvent B: 0.08% Formic acid in methanol-Gradient: 5%-100% B in 3.0 min, 100% solvent B for 0.3 min.
as §3

BXPC3 = test: In vitro cytotoxicity assay (CellTiter-Glo), BXPC3; assay type: cell-based; conditions: Homo sapiens, BXPC-3, 144 h, read-out: Cytotoxicity IC50
Method: as §4, §3

Structure (SMILES) | solubility at 30 min (physchem) | IC50 (SKBR3) | IC50 (HT29) | IC50 (NCI-H292) | IC50 (MCF7) | IC50 (NCI-N87) | IC50 (FaDu) | IC50 (SKOV3) | IC50 (BXPC3)
CC[C@@]1(O)C(=O)OCc2c1cc1n(c2=O)Cc2c-1nc1cc(F)c(C)c3c1c2[C@@H](Nc1c(NCCO)c(=O)c1=O)CC3 [Compound 2] | 15 µM (≈ 8.62 µg/mL) | 75.4 nM | 180 nM | 96 nM | 41.4 nM | 111 nM | 23.4 nM | 124 nM | 29.8 nM
CC[C@@]1(O)C(=O)OCc2c1cc1n(c2=O)Cc2c-1nc1cc(F)c(C)c3c1c2[C@@H](N(CCO)C(C)=O)CC3 [Compound 136] | 23 µM (≈ 12 µg/mL) | 23.7 nM | 36.8 nM | 16.3 nM | 18.4 nM | 40.2 nM | 5.2 nM | 98.4 nM | 24.9 nM
CC[C@@]1(O)C(=O)OCc2c1cc1n(c2=O)Cc2c-1nc1cc(F)c(C)c3c1c2[C@@H](NC(=O)c1ccc(CO)o1)CC3 [Compound 103] | 7 µM (≈ 3.92 µg/mL) | 6.9 nM | 14.4 nM | 6 nM | 4.6 nM | 17.2 nM | 1.5 nM | 26.5 nM | 6.4 nM
CC[C@@]1(O)C(=O)OCc2c1cc1n(c2=O)Cc2c-1nc1cc(F)c(C)c3c1c2[C@@H](NCc1cn(CCO)nn1)CC3 [Compound 108] | 10 µM (≈ 5.61 µg/mL) | 2.9 nM | 13.2 nM | 8.1 nM | 4.4 nM | 8.3 nM | 2.4 nM | 6.6 nM | 2.3 nM
CC[C@@]1(O)C(=O)OCc2c1cc1n(c2=O)Cc2c-1nc1cc(F)c(C)c3c1c2[C@@H](NS(=O)(=O)CCCO)CC3 [Compound 110] | 18 µM (≈ 10 µg/mL) | 7.6 nM | 28.6 nM | 18.8 nM | 22.4 nM | 18.2 nM | 15.6 nM | 59.2 nM | 15.7 nM
CC[C@@]1(O)C(=O)OCc2c1cc1n(c2=O)Cc2c-1nc1cc(F)c(C)c3c1c2[C@@H](Nc1c(NC(CO)(CO)CO)c(=O)c1=O)CC3 [Compound 18] | 13 µM (≈ 8.25 µg/mL) | 65.7 nM | 179 nM | 82.1 nM | 40.7 nM | 158 nM | 42.9 nM | 167 nM | 44.9 nM
CC[C@@]1(O)C(=O)OCc2c1cc1n(c2=O)Cc2c-1nc1cc(F)c(C)c3c1c2[C@@H](NC(=O)[C@@H]1C[C@H]1CO)CC3 (single isomer, unassigned) [Compound 111-A] | 23 µM (≈ 12.3 µg/mL) | 6 nM | 34.4 nM | 18 nM | 16.7 nM | 13.1 nM | 1.9 nM | 24.5 nM | 5.6 nM
CC[C@@]1(O)C(=O)OCc2c1cc1n(c2=O)Cc2c-1nc1cc(F)c(C)c3c1c2[C@@H](NC(=O)CC(=O)NCCO)CC3 [Compound 12] | 17 µM (≈ 9.6 µg/mL) | 30.5 nM | 318 nM | 68.6 nM | 43.9 nM | 92 nM | 16.4 nM | 151 nM | 45.6 nM
CC[C@@]1(O)C(=O)OCc2c1cc1n(c2=O)Cc2c-1nc1cc(F)c(C)c3c1c2[C@@H](Nc1c(NCC(O)CO)c(=O)c1=O)CC3 (stereo partly drawn) [Compound 115] | 23 µM (≈ 13.9 µg/mL) | 62.8 nM | 155 nM | 128 nM | 47 nM | 127 nM | 56.1 nM | 174 nM | 55 nM
CC[C@@]1(O)C(=O)OCc2c1cc1n(c2=O)Cc2c-1nc1cc(F)c(C)c3c1c2[C@@H](NCCO)CC3 [Compound 105] | 25 µM (≈ 12 µg/mL) | 0.9 nM | 2.1 nM | 1.7 nM | 1.4 nM | 1.6 nM | 1.3 nM | 1.8 nM | 0.6 nM
CC[C@@]1(O)C(=O)OCc2c1cc1n(c2=O)Cc2c-1nc1cc(F)c(C)c3c1c2[C@@H](Nc1c(O)c(=O)c1=O)CC3 [Compound 129] | 22 µM (≈ 11.7 µg/mL) | 169 nM | 282 nM | 208 nM | 79.3 nM | 300 nM | 92.9 nM | 265 nM | 134 nM
CC[C@@]1(O)C(=O)OCc2c1cc1n(c2=O)Cc2c-1nc1cc(F)c(C)c3c1c2[C@@H](N)CC3 [Exatecan, exatecan] | 24 µM (≈ 10.5 µg/mL) | 0.5 nM | 1 nM | 1.3 nM | 0.4 nM | 1.2 nM | 0.6 nM | 0.7 nM | 0.3 nM
CC[C@@]1(O)C(=O)OCc2c1cc1n(c2=O)Cc2c-1nc1cc(F)c(C)c3c1c2[C@@H](NC(=O)c1cn(CCO)nn1)CC3 [Compound 52] | 25 µM (≈ 14.4 µg/mL) | 2.5 nM | 23.3 nM | 6.8 nM | 5.9 nM | 10.1 nM | 4.2 nM | 12.9 nM | 3.4 nM
